# Test results taken from PubChem BioAssay (NCI).
#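 All cell lines were grown in 96-well plates and treated with compound for 48 hours. GI50 marks 50% less growth. At the TGI there is no net growth.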
# Columns and labels:
# Assay in all cases: NCI anticancer screen, dose series, 48 h
# T-47D breast = system: T-47D breast
# CAKI-1 renal = system: CAKI-1 renal
# A549 NSCLC = system: A549 NSCLC
# MDA-MB-435 = system: MDA-MB-435
# UACC-62 melanoma = system: UACC-62 melanoma
# HS 578T breast = system: HS 578T breast
# SW-620 colon = system: SW-620 colon
# PC-3 prostate = system: PC-3 prostate
# HT29 colon = system: HT29 colon
# COLO 205 colon = system: COLO 205 colon
# HOP-62 NSCLC = system: HOP-62 NSCLC
# HCC-2998 colon = system: HCC-2998 colon
# NCI-H460 lung = system: NCI-H460 lung
# KM12 colon = system: KM12 colon
# UACC-257 melanoma = system: UACC-257 melanoma
# SF-539 CNS = system: SF-539 CNS
# NCI-H23 lung = system: NCI-H23 lung
# MCF7 breast = system: MCF7 breast
# MALME-3M melanoma = system: MALME-3M melanoma
# U251 CNS = system: U251 CNS
# MOLT-4 leukemia = system: MOLT-4 leukemia
# TK-10 renal = system: TK-10 renal
# HCT-116 colon = system: HCT-116 colon
# SK-MEL-2 melanoma = system: SK-MEL-2 melanoma
# IGROV1 ovarian = system: IGROV1 ovarian
# SK-MEL-28 melanoma = system: SK-MEL-28 melanoma
# NCI/ADR-RES ovarian = system: NCI/ADR-RES ovarian
# OVCAR-5 ovarian = system: OVCAR-5 ovarian
# LOX IMVI melanoma = system: LOX IMVI melanoma
# SF-268 CNS = system: SF-268 CNS
# SK-OV-3 ovarian = system: SK-OV-3 ovarian
# HL-60(TB) leukemia = system: HL-60(TB) leukemia
# ACHN renal = system: ACHN renal
# OVCAR-8 ovarian = system: OVCAR-8 ovarian
# NCI-H522 lung = system: NCI-H522 lung
# RXF 393 renal = system: RXF 393 renal
# MDA-MB-231 breast = system: MDA-MB-231 breast
# A498 renal = system: A498 renal
# HCT-15 colon = system: HCT-15 colon
# M14 melanoma = system: M14 melanoma
# UO-31 renal = system: UO-31 renal
# SF-295 CNS = system: SF-295 CNS
# BT-549 breast = system: BT-549 breast
# K-562 leukemia = system: K-562 leukemia
# SNB-75 CNS = system: SNB-75 CNS
# RPMI-8226 leukemia = system: RPMI-8226 leukemia
# NCI-H226 lung = system: NCI-H226 lung
# CCRF-CEM leukemia = system: CCRF-CEM leukemia
# EKVX NSCLC = system: EKVX NSCLC
# OVCAR-4 ovarian = system: OVCAR-4 ovarian
# SNB-19 CNS = system: SNB-19 CNS
# SK-MEL-5 melanoma = system: SK-MEL-5 melanoma
# 786-0 renal = system: 786-0 renal
# SN12C renal = system: SN12C renal
# OVCAR-3 ovarian = system: OVCAR-3 ovarian
# SR leukemia = system: SR leukemia
# DU-145 prostate = system: DU-145 prostate
compound,measurement,setting,value
COc1ccc(CN2CCc3c(Sc4ccccc4)nc(N)nc3C2=O)c(OC)c1,GI50,T-47D breast,3.99 µM
same,TGI,T-47D breast,34.5 µM
same,GI50,CAKI-1 renal,3.4 µM
same,TGI,CAKI-1 renal,18.3 µM
same,GI50,A549 NSCLC,9.49 µM
same,TGI,A549 NSCLC,45.8 µM
same,GI50,MDA-MB-435,3.57 µM
same,TGI,MDA-MB-435,16.3 µM
same,GI50,UACC-62 melanoma,6.78 µM
same,TGI,UACC-62 melanoma,21.4 µM
same,GI50,HS 578T breast,16.3 µM
same,TGI,HS 578T breast,> 100 µM
same,GI50,SW-620 colon,6.15 µM
same,TGI,SW-620 colon,41.2 µM
same,GI50,PC-3 prostate,4.41 µM
same,TGI,PC-3 prostate,29.1 µM
same,GI50,HT29 colon,7.61 µM
same,TGI,HT29 colon,23.6 µM
same,GI50,COLO 205 colon,14.8 µM
same,TGI,COLO 205 colon,47.9 µM
same,GI50,HOP-62 NSCLC,18 µM
same,TGI,HOP-62 NSCLC,73.4 µM
same,GI50,HCC-2998 colon,14.1 µM
same,TGI,HCC-2998 colon,30.4 µM
same,GI50,NCI-H460 lung,9.06 µM
same,TGI,NCI-H460 lung,> 100 µM
same,GI50,KM12 colon,8.67 µM
same,TGI,KM12 colon,32.7 µM
same,GI50,UACC-257 melanoma,5.99 µM
same,TGI,UACC-257 melanoma,22.2 µM
same,GI50,SF-539 CNS,14.4 µM
same,TGI,SF-539 CNS,36.8 µM
same,GI50,NCI-H23 lung,4.06 µM
same,TGI,NCI-H23 lung,38.4 µM
same,GI50,MCF7 breast,5.65 µM
same,TGI,MCF7 breast,75.9 µM
same,GI50,MALME-3M melanoma,1.58 µM
same,TGI,MALME-3M melanoma,8.87 µM
same,GI50,U251 CNS,8.01 µM
same,TGI,U251 CNS,27.4 µM
same,GI50,MOLT-4 leukemia,3 µM
same,TGI,MOLT-4 leukemia,16.1 µM
same,GI50,TK-10 renal,5 µM
same,TGI,TK-10 renal,19.2 µM
same,GI50,HCT-116 colon,3.9 µM
same,TGI,HCT-116 colon,36.6 µM
same,GI50,SK-MEL-2 melanoma,10.1 µM
same,TGI,SK-MEL-2 melanoma,32.6 µM
same,GI50,IGROV1 ovarian,11 µM
same,TGI,IGROV1 ovarian,28.9 µM
same,GI50,SK-MEL-28 melanoma,8.91 µM
same,TGI,SK-MEL-28 melanoma,26.8 µM
same,GI50,NCI/ADR-RES ovarian,4.13 µM
same,TGI,NCI/ADR-RES ovarian,29.9 µM
same,GI50,OVCAR-5 ovarian,39 µM
same,TGI,OVCAR-5 ovarian,> 100 µM
same,GI50,LOX IMVI melanoma,7.92 µM
same,TGI,LOX IMVI melanoma,24.5 µM
same,GI50,SF-268 CNS,6.21 µM
same,TGI,SF-268 CNS,26 µM
same,GI50,SK-OV-3 ovarian,21.4 µM
same,TGI,SK-OV-3 ovarian,84.6 µM
same,GI50,HL-60(TB) leukemia,1.56 µM
same,TGI,HL-60(TB) leukemia,5.32 µM
same,GI50,ACHN renal,7.25 µM
same,TGI,ACHN renal,52 µM
same,GI50,OVCAR-8 ovarian,6.23 µM
same,TGI,OVCAR-8 ovarian,30.5 µM
same,GI50,NCI-H522 lung,3.05 µM
same,TGI,NCI-H522 lung,17.7 µM
same,GI50,RXF 393 renal,2.65 µM
same,TGI,RXF 393 renal,9.74 µM
same,GI50,MDA-MB-231 breast,11 µM
same,TGI,MDA-MB-231 breast,76.9 µM
same,GI50,A498 renal,7.22 µM
same,TGI,A498 renal,57.7 µM
same,GI50,HCT-15 colon,8.32 µM
same,TGI,HCT-15 colon,39.2 µM
same,GI50,M14 melanoma,9.61 µM
same,TGI,M14 melanoma,28.1 µM
same,GI50,UO-31 renal,1.45 µM
same,TGI,UO-31 renal,12.8 µM
same,GI50,SF-295 CNS,8.35 µM
same,TGI,SF-295 CNS,22.7 µM
same,GI50,BT-549 breast,2.3 µM
same,TGI,BT-549 breast,10.1 µM
same,GI50,K-562 leukemia,4.3 µM
same,TGI,K-562 leukemia,> 100 µM
same,GI50,SNB-75 CNS,5.58 µM
same,TGI,SNB-75 CNS,19.7 µM
same,GI50,RPMI-8226 leukemia,1.89 µM
same,TGI,RPMI-8226 leukemia,7.26 µM
same,GI50,NCI-H226 lung,8.55 µM
same,TGI,NCI-H226 lung,27.1 µM
same,GI50,CCRF-CEM leukemia,4.53 µM
same,TGI,CCRF-CEM leukemia,52.9 µM
same,GI50,EKVX NSCLC,4.32 µM
same,TGI,EKVX NSCLC,19.9 µM
same,GI50,OVCAR-4 ovarian,4.57 µM
same,TGI,OVCAR-4 ovarian,18.3 µM
same,GI50,SNB-19 CNS,15.4 µM
same,TGI,SNB-19 CNS,55.3 µM
same,GI50,SK-MEL-5 melanoma,7.35 µM
same,TGI,SK-MEL-5 melanoma,22.5 µM
same,GI50,786-0 renal,7.62 µM
same,TGI,786-0 renal,> 100 µM
same,GI50,SN12C renal,8.82 µM
same,TGI,SN12C renal,> 100 µM
same,GI50,OVCAR-3 ovarian,4.25 µM
same,TGI,OVCAR-3 ovarian,25.7 µM
same,GI50,SR leukemia,2.95 µM
same,TGI,SR leukemia,22.6 µM
same,GI50,DU-145 prostate,8.57 µM
same,TGI,DU-145 prostate,32.4 µM
